According to paper PMC11042500 (Journal of medicinal chemistry, 2020):
Read-outs that look alike come from different tables or passages of the source.

Experiments:
[1] = test system: L6 rat myoblast cells; assay: Oxygen consumption rate; details: for uncoupling activity (in words): OCR in L6 rat myoblast cells
[2] = test system: STAM mouse model of NASH; assay: STAM; assay type: in vivo, mice; details: SHS4121705 25 mg kg−1 d−1 in food
[3] = Core body temperature after acute oral dose; assay type: in vivo; details: acute oral dose 5, 20, 50 mg/kg, up to 4 h, C57BL/6 male mice; listed as SHS4121705
[4] = use in humans; cited from earlier work
[5] = test system: STAM mouse model of NASH; details: STZ-induced mouse model of NASH; cited from earlier work

Work on `Oc1nc2nonc2nc1Nc1ccccc1F` [12a, 6-((2-Fluorophenyl)amino)-[1,2,5]oxadiazolo[3,4-b]pyrazin-5-ol] yielded a loss of potency ([1]; OCR EC50 of 12a compared with parent diamine uncoupler) of 40 ×.

With `CN(c1ccccc1F)c1nc2nonc2nc1O` [12ae, 6-((2-Fluorophenyl)(methyl)amino)-[1,2,5]oxadiazolo[3,4-b]pyrazin-5-ol] the “uncoupling activity (in words)” value [1] was “completely devoid of uncoupling activity”.

`Oc1nc2nonc2nc1Nc1ccc(OC(F)(F)F)cc1` [12i, 6-((4-(Trifluoromethoxy)phenyl)amino)-[1,2,5]oxadiazolo[3,4-b]pyrazin-5-ol] gave a ballooning score ([2]; 21 days) of 0.25 ± 0.16, an inflammation score ([2]; 21 days) of 2.38 ± 0.18 and a steatosis score ([2]; 21 days) of 0 ± 0. The “NAS score (NAFLD activity score)” value ([2]; liver, day 21) was 2.63 ± 0.18 and the “effect on core body temperature” value [3] was “no effect”.

With `Oc1nc2nonc2nc1Nc1ccc(C(F)(F)F)c(F)c1` [12v, 6-((3-Fluoro-4-(trifluoromethyl)phenyl)amino)-[1,2,5]oxadiazolo[3,4-b]pyrazin-5-ol] the “fold less potent than 12i” value ([1]; OCR EC50 relative to 12i) was greater than 2 fold.

For `Oc1nccnc1Nc1ccccc1F` [16a, 3-((2-Fluorophenyl)amino)pyrazin-2-ol], the “uncoupling activity (in words)” value [1] was “inactive”.

With `CCCCCCCCCCc1ccc(Nc2nccnc2O)cc1` [16b, 3-((4-Decylphenyl)amino)pyrazin-2-ol] the “uncoupling activity (in words)” value [1] was “inactive”.

In the case of `COc1cccc(-c2ccc(Nc3nccnc3O)cc2)c1` [16g, 3-((3′-Methoxy-[1,1′-biphenyl]-4-yl)amino)pyrazin-2-ol], the “uncoupling activity (in words)” value [1] is reported as “inactive”.

With `Oc1nccnc1Nc1ccc(-c2ccc(F)cc2)cc1` [16h, 3-((4′-Fluoro-[1,1′-biphenyl]-4-yl)amino)pyrazin-2-ol] the “uncoupling activity (in words)” value [1] was “inactive”.

In the case of `O=[N+]([O-])c1ccc(O)c([N+](=O)[O-])c1` [DNP, 2,4-dinitrophenol], the increase in metabolism [4] is given as greater than 50%.

In the case of `Fc1cccc(Nc2nc3nonc3nc2Nc2ccccc2F)c1` [compound 9], the fibrosis score [5] is listed as “reduced”, the inflammation score [5] is listed as “reduced” and the liver triglyceride levels [5] is listed as “lowered”.

For `COc1nc2nonc2nc1Nc1ccc(OC(F)(F)F)cc1` [compound 13, 6-Methoxy-N-(4-(trifluoromethoxy)phenyl)-[1,2,5]oxadiazolo[3,4-b]pyrazin-5-amine], the “uncoupling activity (in words)” value [1] was “significantly abrogated”.
